Source: patent US20100204275A1 (published 2010)
Where a name gives a salt, the structure may show the parent alone.

melting point | Structure (SMILES)
172 to 174 °C | CC(=O)N(CC1CCNCC1)c1ccc(Cl)c(Cl)c1 (as salt: trifluoroacetic acid salt)
134 to 136 °C | CCC(=O)N(CC1CCNCC1)c1ccc(Cl)cn1 (as salt: trifluoroacetic acid salt)
168 to 170 °C | CCC(=O)N(CC1CCNCC1)c1ccc2cc(OC)ccc2c1.O=C(O)C(F)(F)F
115 to 117 °C | COCC(=O)N(CC1CCNCC1)c1ccc(Cl)c(Cl)c1 (as salt: salt)
94 to 96 °C | CCC(=O)N(CC1CCNCC1)c1cccc(Cl)c1 (as salt: salt)
151 to 153 °C | CCC(=O)N(CC1CCNCC1)c1ccc2cc(OCc3ccccc3)ccc2c1.O=C(O)C(F)(F)F
98 to 100 °C | CCC(=O)N(CC1CCNCC1)c1ccccc1 (as salt: trifluoroacetic acid salt)
108 to 110 °C | CCC(=O)N(CC1CCNCC1)c1ccccn1 (as salt: trifluoroacetic acid salt)
